Source: article PMC9571433, “Design, Synthesis, Anti-Varicella-Zoster and Antimicrobial Activity of (Isoxazolidin-3-yl)Phosphonate Conjugates of N1-Functionalised Quinazoline-2,4-Diones” (Molecules, 2022)
Values after ≈ are worked out from the molar mass of the structure shown. Like-named read-outs stand apart in the source and are kept apart here.

Columns and labels:
[1] = tested on: S. aureus ATCC 2593; experiment: Broth microdilution MIC/MBC; conditions: Staphylococcus aureus, ATCC2593, 24 h, read-out: MIC = MBC
[2] = tested on: A. brasiliensis ATCC 16404; experiment: Broth microdilution MIC/MBC (antifungal); conditions: Aspergillus brasiliensis
[3] = tested on: E. coli ATCC 25922; experiment: Broth microdilution MIC/MBC; conditions: Escherichia coli
[4] = tested on: C. albicans ATCC 10241; experiment: Broth microdilution MIC/MBC (antifungal); conditions: Candida albicans
[5] = tested on: B. cereus PCM 1948; experiment: Broth microdilution MIC/MBC; conditions: Bacillus cereus
[6] = tested on: TK– VZV 07-1 strain; experiment: microbe, parasite or virus in culture; assay type: cell-based, varicella-zoster virus; conditions: Human alphaherpesvirus 3, HEL, read-out: Antiviral Activity EC50 TK– VZV Strain (07-1)
[7] = tested on: P. aeruginosa ATCC 27853; experiment: Broth microdilution MIC/MBC; conditions: Pseudomonas aeruginosa, ATCC27853, 24 h, read-out: MIC = MBC
[8] = tested on: E. faecalis ATCC 29212; experiment: Broth microdilution MIC/MBC; conditions: Enterococcus faecalis, ATCC29212, 24 h
[9] = tested on: human embryonic lung (HEL) cells; conditions: minimum cytotoxic concentration causing microscopically detectable alteration of cell morphology
[10] = tested on: TK+ VZV OKA strain; experiment: microbe, parasite or virus in culture; assay type: cell-based, varicella-zoster virus; conditions: Human alphaherpesvirus 3, HEL, read-out: Antiviral Activity EC50 TK+ VZV Strain (OKA)
[11] = tested on: feline herpes viruses; design: method as in PMID 24906510, PMID 28763115, PMID 24219992; conditions: read-out: EC50 toward feline herpes viruses; cited from earlier work
[12] = ATCC16404, 72 h, read-out: MIC = MBC
[13] = ATCC25922, 24 h, read-out: MIC = MBC
[14] = PCM1948, 24 h, read-out: MIC = MBC

| Compound | MIC [1] | MIC [2, 12] | MIC [3, 13] | MIC ([4]; ATCC10241, read-out: MIC = MBC) | MIC [5, 14] | EC50 [6] | MIC [7] | MBC [8] | MIC [8] | Cytotoxicity Cell Morphology MCC [9] | EC50 [10] | MIC ([3]; ATCC25922) | EC50 [11] | MIC ([5]; PCM1948) | MBC ([2]; ATCC16404) | MIC ([2]; ATCC16404) | MBC ([4]; ATCC10241) | MIC ([4]; ATCC10241) |
| --- | --- | --- | --- | --- | --- | --- | --- | --- | --- | --- | --- | --- | --- | --- | --- | --- | --- | --- |
| CCOP(=O)(OCC)[C@H]1C[C@H](Cn2c(=O)c3ccccc3n(Cc3ccccc3F)c2=O)ON1C (relative stereo) [Diethyl trans-(5-((1-(2-fluorobenzyl)-2,4-dioxo-1,4-dihydroquinazolin-3(2H)-yl)methyl)-2-methylisoxazolidin-3-yl)phosphonate] | 5000 µg/mL (≈ 9.89 mM) | 5000 µg/mL (≈ 9.89 mM) | 2500 µg/mL (≈ 4.95 mM) | 2500 µg/mL (≈ 4.95 mM) | 1250 µg/mL (≈ 2.47 mM) | 58.5 µM | 2500 µg/mL (≈ 4.95 mM) | > 5000 µg/mL | > 5000 µg/mL | >100 μM | 31.7 µM | – | – | – | – | – | – | – |
| CCOP(=O)(OCC)C1CC(Cn2c(=O)c3ccccc3n(Cc3ccc(F)cc3)c2=O)ON1Cc1ccccc1 (stereo not drawn) [Diethyl trans-(2-benzyl-5-((1-(4-fluorobenzyl)-2,4-dioxo-1,2-dihydroquinazolin-3(2H)-yl)methyl)isoxazolidin-3-yl)phosphonate] | 5000 µg/mL (≈ 8.6 mM) | 5000 µg/mL (≈ 8.6 mM) | 1250 µg/mL (≈ 2.15 mM) | 2500 µg/mL (≈ 4.3 mM) | 1250 µg/mL (≈ 2.15 mM) | 20 µM | 2500 µg/mL (≈ 4.3 mM) | > 5000 µg/mL | > 5000 µg/mL | 100 μM | 20 µM | 1250 µg/mL (≈ 2.15 mM) | – | – | – | – | – | – |
| O=c1[nH]c(=O)n([C@H]2C[C@H](O)[C@@H](CO)O2)cc1/C=C/Br [Brivudin, reference compound] | – | – | – | – | – | 12 µM | – | – | – | >300 μM | 0.026 µM | – | – | – | – | – | – | – |
| C=CCn1c(=O)c2ccccc2n(Cc2ccccc2)c1=O [24a, 3-Allyl-1-benzylquinazoline-2,4-dione] | 5000 µg/mL (≈ 17.1 mM) | 5000 µg/mL (≈ 17.1 mM) | 2500 µg/mL (≈ 8.55 mM) | 5000 µg/mL (≈ 17.1 mM) | 5000 µg/mL (≈ 17.1 mM) | 100 µM | 2500 µg/mL (≈ 8.55 mM) | > 5000 µg/mL | > 5000 µg/mL | >100 μM | 100 µM | – | – | – | – | – | – | – |
| C=CCn1c(=O)c2ccccc2n(Cc2ccccc2F)c1=O [24b, 3-Allyl-1-(2-fluorobenzyl)quinazoline-2,4-dione] | 5000 µg/mL (≈ 16.1 mM) | 5000 µg/mL (≈ 16.1 mM) | 2500 µg/mL (≈ 8.06 mM) | 5000 µg/mL (≈ 16.1 mM) | 2500 µg/mL (≈ 8.06 mM) | 64.5 µM | 2500 µg/mL (≈ 8.06 mM) | > 5000 µg/mL | > 5000 µg/mL | >100 μM | > 100 µM | – | – | – | – | – | – | – |
| CCOP(=O)(CCCn1cc(Cn2c(=O)n(C(=O)c3ccccc3)c(=O)c3ccccc32)nn1)OCC [compound 7] | – | – | – | – | – | – | – | – | – | – | – | – | 4 µM | – | – | – | – | – |
| CCOP(=O)(OCC)[C@H]1C[C@H](Cn2c(=O)c3ccccc3n(Cc3ccccc3)c2=O)ON1Cc1ccccc1 (relative stereo) [Diethyl trans-(2-benzyl-5-((1-benzyl-2,4-dioxo-1,4-dihydroquinazolin-3(2H)-yl)methyl)isoxazolidin-3-yl)phosphonate] | 5000 µg/mL (≈ 8.87 mM) | 5000 µg/mL (≈ 8.87 mM) | 2500 µg/mL (≈ 4.44 mM) | 5000 µg/mL (≈ 8.87 mM) | 1250 µg/mL (≈ 2.22 mM) | 34.2 µM | 2500 µg/mL (≈ 4.44 mM) | > 5000 µg/mL | > 5000 µg/mL | 100 μM | 14.5 µM | – | – | – | – | – | – | – |
| CCOP(=O)(OCC)[C@H]1C[C@H](Cn2c(=O)c3ccccc3n(Cc3ccc(F)cc3)c2=O)ON1C (relative stereo) [Diethyl trans-(5-((1-(4-fluorobenzyl)-2,4-dioxo-1,4-dihydroquinazolin-3(2H)-yl)methyl)-2-methylisoxazolidin-3-yl)phosphonate] | 5000 µg/mL (≈ 9.89 mM) | 5000 µg/mL (≈ 9.89 mM) | 2500 µg/mL (≈ 4.95 mM) | 2500 µg/mL (≈ 4.95 mM) | 1250 µg/mL (≈ 2.47 mM) | 38.1 µM | 2500 µg/mL (≈ 4.95 mM) | > 5000 µg/mL | > 5000 µg/mL | >100 μM | 58.5 µM | – | – | – | – | – | – | – |
| C=CCn1c(=O)c2ccccc2n(Cc2cccc(F)c2)c1=O [24c, 3-Allyl-1-(3-fluorobenzyl)quinazoline-2,4-dione] | 5000 µg/mL (≈ 16.1 mM) | 5000 µg/mL (≈ 16.1 mM) | 1250 µg/mL (≈ 4.03 mM) | 2500 µg/mL (≈ 8.06 mM) | 5000 µg/mL (≈ 16.1 mM) | > 100 µM | 2500 µg/mL (≈ 8.06 mM) | > 5000 µg/mL | > 5000 µg/mL | >100 μM | > 100 µM | 1250 µg/mL (≈ 4.03 mM) | – | – | – | – | – | – |
| CCOP(=O)(OCC)C1CC(Cn2c(=O)c3ccccc3n(Cc3ccccc3)c2=O)ON1C (stereo not drawn) [cis-20a/trans-20a (10:90), Diethyl trans-5-((1-benzyl-2,4-dioxo-1,4-dihydroquinazolin-3(2H)-yl)methyl)-2-methylisoxazolidin-3-yl)phosphonate] | 2500 µg/mL (≈ 5.13 mM) | 5000 µg/mL (≈ 10.3 mM) | 1250 µg/mL (≈ 2.56 mM) | 2500 µg/mL (≈ 5.13 mM) | 1250 µg/mL (≈ 2.56 mM) | 100 µM | 2500 µg/mL (≈ 5.13 mM) | > 5000 µg/mL | > 5000 µg/mL | >100 μM | 31.7 µM | 1250 µg/mL (≈ 2.56 mM) | – | – | – | – | – | – |
| NCC[C@H](O)C(=O)N[C@@H]1C[C@H](N)[C@@H](O[C@H]2O[C@H](CN)[C@@H](O)[C@H](O)[C@H]2O)[C@H](O)[C@H]1O[C@H]1O[C@H](CO)[C@@H](O)[C@H](N)[C@H]1O [Amikacin, reference compound] | 1 µg/mL (≈ 0.00171 mM) | – | 0.625 µg/mL (≈ 0.00107 mM) | – | 20 µg/mL (≈ 0.0342 mM) | – | 20 µg/mL (≈ 0.0342 mM) | – | 0.625 µg/mL (≈ 0.00107 mM) | – | – | – | – | 20 µg/mL (≈ 0.0342 mM) | – | – | – | – |
| CCOP(=O)(OCC)C1CC(Cn2c(=O)c3ccccc3n(Cc3ccccc3F)c2=O)ON1Cc1ccccc1 (stereo not drawn) [Diethyl trans-(2-benzyl-5-((1-(2-fluorobenzyl)-2,4-dioxo-1,2-dihydroquinazolin-3(2H)-yl)methyl)isoxazolidin-3-yl)phosphonate] | 5000 µg/mL (≈ 8.6 mM) | 5000 µg/mL (≈ 8.6 mM) | 2500 µg/mL (≈ 4.3 mM) | 2500 µg/mL (≈ 4.3 mM) | 1250 µg/mL (≈ 2.15 mM) | 27.6 µM | 2500 µg/mL (≈ 4.3 mM) | > 5000 µg/mL | > 5000 µg/mL | 100 μM | 12.6 µM | – | – | – | – | – | – | – |
| CCOP(=O)(OCC)C1CC(Cn2c(=O)c3ccccc3n(Cc3cccc(F)c3)c2=O)ON1Cc1ccccc1 (stereo not drawn) [Diethyl trans-(2-benzyl-5-((1-(3-fluorobenzyl)-2,4-dioxo-1,2-dihydroquinazolin-3(2H)-yl)methyl)isoxazolidin-3-yl)phosphonate] | 5000 µg/mL (≈ 8.6 mM) | 5000 µg/mL (≈ 8.6 mM) | 1250 µg/mL (≈ 2.15 mM) | 2500 µg/mL (≈ 4.3 mM) | 2500 µg/mL (≈ 4.3 mM) | 14.5 µM | 2500 µg/mL (≈ 4.3 mM) | > 5000 µg/mL | > 5000 µg/mL | 20 μM | 20 µM | 1250 µg/mL (≈ 2.15 mM) | – | – | – | – | – | – |
| C=CCn1c(=O)c2ccccc2n(Cc2ccc(F)cc2)c1=O [24d, 3-Allyl-1-(4-fluorobenzyl)quinazoline-2,4-dione] | 5000 µg/mL (≈ 16.1 mM) | 5000 µg/mL (≈ 16.1 mM) | 2500 µg/mL (≈ 8.06 mM) | 2500 µg/mL (≈ 8.06 mM) | 5000 µg/mL (≈ 16.1 mM) | > 20 µM | 2500 µg/mL (≈ 8.06 mM) | > 5000 µg/mL | > 5000 µg/mL | 100 μM | 54.7 µM | – | – | – | – | – | – | – |
| OC(Cn1cncn1)(Cn1cncn1)c1ccc(F)cc1F [Fluconazole, reference compound] | – | – | – | – | – | – | – | – | – | – | – | – | – | – | > 5 µg/mL | 5 µg/mL (≈ 0.0163 mM) | > 5 µg/mL | 5 µg/mL (≈ 0.0163 mM) |
| O=C(c1ccccc1)n1c(=O)c2ccccc2n(Cc2cn(C[C@H](OCc3ccccc3)[C@H](O)P(=O)(OCc3ccccc3)OCc3ccccc3)nn2)c1=O [compound 8] | – | – | – | – | – | – | – | – | – | – | – | – | 24 µM | – | – | – | – | – |
